By inhibition is commonly meant the relative decrease from the control value, in per cent. The term IC50 denotes the concentration at which inhibition is half-maximal. A higher IC50 goes with a need for much substance.

This is an account of results in ChEMBL document CHEMBL2157940, “Low molecular weight phosphotyrosine protein phosphatases as emerging targets for the design of novel therapeutic agents” (J Med Chem, 2012).

Assay [1] concerns the target T1, Low molecular weight phosphotyrosine protein phosphatase (Bos taurus) (UniProt P11064).
T1 sequence (whole entry): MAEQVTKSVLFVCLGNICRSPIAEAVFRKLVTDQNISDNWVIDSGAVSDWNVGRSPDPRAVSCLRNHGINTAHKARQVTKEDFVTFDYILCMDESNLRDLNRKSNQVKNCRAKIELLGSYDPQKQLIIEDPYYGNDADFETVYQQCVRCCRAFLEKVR
Briefly: Inhibition of bovine kidney LMW-PTPase at 400 uM using pNPP substrate.

The target of assay [2] is T2, Low molecular weight phosphotyrosine protein phosphatase (Homo sapiens, UniProt P24666).
T2 sequence (P24666 whole entry): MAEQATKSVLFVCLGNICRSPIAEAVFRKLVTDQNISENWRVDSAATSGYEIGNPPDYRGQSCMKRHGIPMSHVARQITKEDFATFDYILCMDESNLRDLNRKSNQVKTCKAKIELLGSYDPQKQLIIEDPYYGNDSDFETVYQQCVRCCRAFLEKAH
The experiment in a line: Inhibition of human LMW-PTPase isoform 2.

Assay [3] deals with T2, Low molecular weight phosphotyrosine protein phosphatase. Briefly: Inhibition of human LMW-PTPase isoform 1.
Assay [4] deals with T3, Tyrosine-protein phosphatase non-receptor type 1 (Homo sapiens, UniProt P18031).
T3 sequence (P18031 whole entry): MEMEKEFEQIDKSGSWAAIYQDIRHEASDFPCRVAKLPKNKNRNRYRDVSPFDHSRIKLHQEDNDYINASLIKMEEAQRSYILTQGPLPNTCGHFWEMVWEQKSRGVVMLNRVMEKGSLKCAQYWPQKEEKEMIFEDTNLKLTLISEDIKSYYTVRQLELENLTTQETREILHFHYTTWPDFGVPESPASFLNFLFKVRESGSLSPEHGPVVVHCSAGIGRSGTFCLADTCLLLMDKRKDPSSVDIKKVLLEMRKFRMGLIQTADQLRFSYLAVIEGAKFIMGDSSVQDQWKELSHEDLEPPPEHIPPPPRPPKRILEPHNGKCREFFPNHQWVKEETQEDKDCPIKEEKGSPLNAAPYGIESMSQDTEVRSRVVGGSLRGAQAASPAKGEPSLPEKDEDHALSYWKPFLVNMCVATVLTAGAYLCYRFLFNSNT
The experiment in a line: Inhibition of human PTP1B.

Assay [5] is described as follows: Inhibition of Mycobacterium tuberculosis LMW-PTP.
Assay [6] has as its target T1, Low molecular weight phosphotyrosine protein phosphatase (Bos taurus). Briefly: Activation of bovine kidney LMW-PTPase at 400 uM using pNPP substrate.

Take `Oc1cc(O)c2c(c1)OC(c1ccc(O)c(O)c1)C(O)C2` (configuration not stated): in assay [1], the inhibition was determined as 14%. With `O=P(O)(O)CCc1cncc2cc[nH]c12`, the IC50 was 2760 µM in assay [2] and 1790 µM in assay [3].

Turning to `C[C@@H]1O[C@@H](OC[C@H]2O[C@@H](Oc3c(-c4ccc(O)c(O)c4)oc4cc(O)cc(O)c4c3=O)[C@H](O)[C@@H](O)[C@@H]2O)[C@H](O)[C@H](O)[C@H]1O`, the inhibition in assay [1] was determined as 14%.

Regarding `O=C(O)c1ccc(COc2ccc(/C=C3\S/C(=N\c4ccccc4)N(Cc4ccc(C(=O)O)cc4)C3=O)cc2)cc1`, the IC50 in assay [3] is 5.8 µM; in assay [4], 0.55 µM.

With `Nc1ccccc1CCP(=O)(O)O`, the 50% inhibitory concentration (IC50) was determined as 1400 µM in assay [2] and 250 µM in assay [3]. On the same counts, the results for `Nc1ccccc1/C=C/P(=O)(O)O` are 13000 µM and 5300 µM.

Take `O=P(O)(O)CCc1cccc2ccccc12`: the 50% inhibitory concentration (IC50) in assay [2] is 10000 µM; in assay [3] it was 14000 µM.

As to `O=c1c(O)c(-c2ccc(O)cc2O)oc2cc(O)cc(O)c12`, the inhibition in assay [1] came out at 35%.

`O=C(O)c1ccc(COc2cccc(/C=C3\S/C(=N\c4ccccc4)N(Cc4ccc(C(=O)O)cc4)C3=O)c2)cc1`: the values for the IC50 in assay [2] and in assay [3] were 0.22 µM and 0.5 µM, respectively. For `Nc1ccncc1CCP(=O)(O)O`, in that order: 2210 µM and 300 µM. With `CCCCCCCCCCCCC[C@H]1OC(=O)[C@H](COCc2ccccc2)NC(=O)[C@H]([C@@H](C)O)NC(=O)[C@H](C(C)C)NC(=O)[C@H]1C`, in assay [5], the IC50 worked out at 8.8 µM. In the case of `O=c1c(O)c(-c2cc(O)c(O)c(O)c2)oc2cc(O)cc(O)c12`, the inhibition in assay [1] was 14%. In assay [5], `C/C(=C1\C=CC=N1)c1ccc(-c2ccc[nH]2)o1` showed an IC50 of 9.4 µM. On to `O=C(CCc1ccc(O)cc1)c1c(O)cc(O)cc1O`, for which the inhibition in assay [1] is 14%.

With `O=c1c(O)c(-c2ccc(O)c(O)c2)oc2cc(O)cc(O)c12`, the fold change (FC) in assay [6] is 2.6.
